Measured values taken from patent US11267812B2 (Mirati Therapeutics, Inc., priority 2016, dated 2022).
Like-named read-outs stand apart in the source and are kept apart here.

What was measured:
KRas G12C = KRas G12C (Homo sapiens, UniProt P01116, C118S/C51S/C80L/G12C); assay: KRas G12C Modification Assay (LCMS detection of covalent adduct); format: binding; conditions: 5 μM compound, 3 hours
Procedure: A 10 μL aliquot of each protein solution was then transferred to a 384 well microtiter plate. Initial compound stocks were generated at fifty times their desired final assay concentration in DMSO.
Exemplary compounds of Formula (I) were diluted 25-fold into K-Ras Assay Buffer to a final of two times their final concentration. A 10 μL aliquot of each diluted compound solution was then added to each of the protein solutions in the microtiter plate to initiate reaction. […] At each time point, the reactions were quenched with 20 μL of a 25 mM acetic acid solution. […] Once all reactions were quenched, the plates were heat sealed and the samples were injected into a LC/MS system for data acquisition.
Samples were injected in their liquid phase onto a C-3 reverse phase column to remove assay buffer and prepare the samples for mass spectrometer. The proteins were eluted from the column using an acetonitrile gradient and fed directly into the mass analyzer. Initial raw data analysis took place in Agilent MassHunter software immediately post data acquisition.
Raw data analysis of the intact protein was exclusively a deconvolution of the multiple charge states of each protein in solution using a maximum entropy deconvolution provided in Mass Hunter. To minimize complexity, only the data over limited mass ranges were considered for analysis, with a minimum of one Dalton mass step intervals. The heights of all masses identified during raw data analysis were exported to be further analyzed in Spotfire® data analysis software.
Final data analysis was a multistep process in the Spotfire® data analysis software package. Briefly, each protein mass was calculated as a percent of the total signal of that sample, that percentage was then normalized to the percentage of signal of the protein in the absence of reactive compounds. Those normalized signals were reported as normalized percent of control (POC). […] Key: “A”≤25% POC; “B”>25% POC≤50% POC; “C”>50% POC and ND=not determined.

[1] = test system: Phospho-ERK in NCI-H358 cells expressing KRas G12C; assay: Cellular inhibition of KRas G12C by Phospho-ERK measurement in NCI-H358 cells; format: cell-based; conditions: Homo sapiens, read-out: IC50 (pERK(Thr202/Tyr204) normalized with GAPDH)
How it was run: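 After 8–12 h attachment, NCI-H358 cells were treated with compounds for 3 h (0.5% DMSO final), fixed, methanol-permeabilized and immunostained. pERK(Thr202/Tyr204) was read by infrared imaging and normalized to GAPDH as percent of DMSO control. IC50 came from a 4-parameter fit.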

[2] = NCI-H358 cells, 3 hours compound treatment

SMILES | POC (normalized percent of control, KRas G12C modification) (KRas G12C) | IC50 ([1]; NCI-H358, 3 h) | IC50 [1, 2]
CC#CC(=O)N1CCN(c2nc(OC[C@@H]3CCCN3C)nc3c2CCN(c2cccc4ccccc24)C3)CC1CC#N (stereo partly drawn) [Example 242, 2-(1-(but-2-ynoyl)-4-(2-(((S)-1-methylpyrrolidin-2-yl)methoxy)-7-(naphthalen-1-yl)-5,6,7,8-tetrahydropyrido[3,4-d]pyrimidin-4-yl)piperazin-2-yl)acetonitrile] | C (“C”>50% POC) | 1 to 1000 nM | 
C=CC(=O)N1CCN(c2nc(OC[C@@H]3CCCN3C)nc3c2CCN(c2ccccc2C(F)(F)F)C3)CC1CC#N (stereo partly drawn) [Example 210, 2-(1-acryloyl-4-(2-(((S)-1-methylpyrrolidin-2-yl)methoxy)-7-(2-(trifluoromethyl)phenyl)-5,6,7,8-tetrahydropyrido[3,4-d]pyrimidin-4-yl)piperazin-2-yl)acetonitrile] | C (“C”>50% POC) |  | 1 to 1000 nM
C=CC(=O)N1CCN(c2nc(OC[C@@H]3CCCN3C)nc3c2CCN(c2cc(O)cc4ccccc24)C3)CC1CC#N (stereo partly drawn) [Example 182, 2-[4-[7-(3-hydroxy-1-naphthyl)-2-[[(2S)-1-methylpyrrolidin-2-yl]methoxy]-6,8-dihydro-5H-pyrido[3,4-d]pyrimidin-4-yl]-1-prop-2-enoyl-piperazin-2-yl]acetonitrile] | C (“C”>50% POC) |  | 1 to 1000 nM
C=CC(=O)N1CCN(c2nc(OCCCO)nc3c2CCN(c2cccc4ccccc24)C3)CC1CC#N (centres unmarked) [Example 231, 2-(1-acryloyl-4-(2-(3-hydroxypropoxy)-7-(naphthalen-1-yl)-5,6,7,8-tetrahydropyrido[3,4-d]pyrimidin-4-yl)piperazin-2-yl)acetonitrile] | C (“C”>50% POC) |  | 1 to 1000 nM
C=CC(=O)N1CCN(c2nc(OC[C@@H]3CCCN3C)nc3c2CCN(c2c(C)c(O)cc4ccccc24)C3)CC1 [Example 175, (S)-1-(4-(7-(3-hydroxy-2-methylnaphthalen-1-yl)-2-((1-methylpyrrolidin-2-yl)methoxy)-5,6,7,8-tetrahydropyrido[3,4-d]pyrimidin-4-yl)piperazin-1-yl)prop-2-en-1-one] | C (“C”>50% POC) |  | 1 to 1000 nM
C=CC(=O)N1CCN(c2nc(OC[C@H]3CCCN3C)nc3c2CCN(c2cccc4ccccc24)C3)CC1CC#N (stereo partly drawn) [Example 183, 2-[4-[2-[[(2R)-1-methylpyrrolidin-2-yl]methoxy]-7-(1-naphthyl)-6,8-dihydro-5H-pyrido[3,4-d]pyrimidin-4-yl]-1-prop-2-enoyl-piperazin-2-yl]acetonitrile] | C (“C”>50% POC) | 1 to 1000 nM | 
C=CC(=O)N1CCN(c2nc(OCCCN3CC4CC4C3)nc3c2CCN(c2cc(O)cc4ccccc24)C3)CC1 (centres unmarked) [Example 206, 1-(4-(2-(3-(3-azabicyclo[3.1.0]hexan-3-yl)propoxy)-7-(3-hydroxynaphthalen-1-yl)-5,6,7,8-tetrahydropyrido[3,4-d]pyrimidin-4-yl)piperazin-1-yl)prop-2-en-1-one] | C (“C”>50% POC) |  | 1 to 1000 nM
C=CC(=O)N1CCN(c2nc(OC[C@@H]3CCCN3C)nc3c2CCN(c2cccc4ccccc24)C3)C[C@@H]1CC#N [Example 234, 2-((S)-1-acryloyl-4-(2-(((S)-1-methylpyrrolidin-2-yl)methoxy)-7-(naphthalen-1-yl)-5,6,7,8-tetrahydropyrido[3,4-d]pyrimidin-4-yl)piperazin-2-yl)acetonitrile] | C (“C”>50% POC) | 1 to 1000 nM | 
C=CC(=O)N1CCN(c2nc(OC[C@@H]3CCCN3CC3CC3)nc3c2CCN(c2cccc4ccccc24)C3)CC1CC#N (stereo partly drawn) [Example 257, 2-(1-acryloyl-4-(2-(((S)-1-(cyclopropylmethyl)pyrrolidin-2-yl)methoxy)-7-(naphthalen-1-yl)-5,6,7,8-tetrahydropyrido[3,4-d]pyrimidin-4-yl)piperazin-2-yl)acetonitrile] | C (“C”>50% POC) |  | 1 to 1000 nM
C=CC(=O)N1CCN(c2nc(OCCCN3CCOCC3)nc3c2CCN(c2c(C(F)(F)F)ccc4[nH]ncc24)C3)CC1 [Example 180, 1-[4-[2-(3-morpholinopropoxy)-7-[5-(trifluoromethyl)-1H-indazol-4-yl]-6,8-dihydro-5H-pyrido[3,4-d]pyrimidin-4-yl]piperazin-1-yl]prop-2-en-1-one] | C (“C”>50% POC) |  | 1 to 1000 nM
C=CC(=O)N1CCN(c2nc(OCCN(C)C)nc3c2CCN(c2cc(O)cc4ccccc24)C3)CC1CC#N (centres unmarked) [Example 170, 2-(1-acryloyl-4-(2-(2-(dimethylamino)ethoxy)-7-(3-hydroxynaphthalen-1-yl)-5,6,7,8-tetrahydropyrido[3,4-d]pyrimidin-4-yl)piperazin-2-yl)acetonitrile] | C (“C”>50% POC) |  | 1 to 1000 nM
C=CC(=O)N1CCN(c2nc(OC[C@]3(C)CCCN3C)nc3c2CCN(c2cccc4ccccc24)C3)CC1CC#N (stereo partly drawn) [Example 251, 2-(1-acryloyl-4-(2-(((S)-1,2-dimethylpyrrolidin-2-yl)methoxy)-7-(naphthalen-1-yl)-5,6,7,8-tetrahydropyrido[3,4-d]pyrimidin-4-yl)piperazin-2-yl)acetonitrile] | C (“C”>50% POC) |  | 1 to 1000 nM
C=CC(=O)N1CCN(c2nc(OC[C@@H]3C[C@@H](F)CN3C)nc3c2CCN(c2cccc4ccccc24)C3)CC1CC#N (stereo partly drawn) [Example 220, 2-(1-acryloyl-4-(2-(((2S,4R)-4-fluoro-1-methylpyrrolidin-2-yl)methoxy)-7-(naphthalen-1-yl)-5,6,7,8-tetrahydropyrido[3,4-d]pyrimidin-4-yl)piperazin-2-yl)acetonitrile] | C (“C”>50% POC) |  | 1 to 1000 nM
C=CC(=O)N1CCN(c2nc(OC[C@@H]3CCCN3C)nc3c2CCN(c2c(C(F)(F)F)ccc4[nH]ncc24)C3)CC1CC#N (stereo partly drawn) [Example 149, 2-[4-[2-[[(2S)-1-methylpyrrolidin-2-yl]methoxy]-7-[5-(trifluoromethyl)-1H-indazol-4-yl]-6,8-dihydro-5H-pyrido[3,4-d]pyrimidin-4-yl]-1-prop-2-enoyl-piperazin-2-yl]acetonitrile] | B (“B”>25% POC≤50% POC) |  | 1 to 1000 nM
C=CC(=O)N1CCN(c2nc(OCCCN3CCOCC3)nc3c2CCN(c2c(F)c(O)cc4ccccc24)C3)CC1 [Example 165, 1-[4-[7-(2-fluoro-3-hydroxy-1-naphthyl)-2-(3-morpholinopropoxy)-6,8-dihydro-5H-pyrido[3,4-d]pyrimidin-4-yl]piperazin-1-yl]prop-2-en-1-one] | C (“C”>50% POC) |  | 
C=CC(=O)N1CCN(c2nc(OC[C@@H]3CCN(C)C3)nc3c2CCN(c2cccc4ccccc24)C3)CC1CC#N (stereo partly drawn) [Example 177, 2-[4-[2-[[(3R)-1-methylpyrrolidin-3-yl]methoxy]-7-(1-naphthyl)-6,8-dihydro-5H-pyrido[3,4-d]pyrimidin-4-yl]-1-prop-2-enoyl-piperazin-2-yl]acetonitrile] | C (“C”>50% POC) |  | 1 to 1000 nM
C=CC(=O)N1CCN(c2nc(OC[C@@H]3CCCN3C)nc3c2CCN(c2c(C)ccc4[nH]ncc24)C3)CC1 [Example 155, (S)-1-(4-(7-(5-methyl-1H-indazol-4-yl)-2-((1-methylpyrrolidin-2-yl)methoxy)-5,6,7,8-tetrahydropyrido[3,4-d]pyrimidin-4-yl)piperazin-1-yl)prop-2-en-1-one] | C (“C”>50% POC) |  | 1 to 1000 nM
C=CC(=O)N1CCN(c2nc(OC[C@@H]3CCCN3C)nc3c2CCN(c2c(C(C)C)ccc4[nH]ncc24)C3)CC1 [Example 248, (S)-1-(4-(7-(5-isopropyl-1H-indazol-4-yl)-2-((1-methylpyrrolidin-2-yl)methoxy)-5,6,7,8-tetrahydropyrido[3,4-d]pyrimidin-4-yl)piperazin-1-yl)prop-2-en-1-one] | C (“C”>50% POC) |  | 
C=CC(=O)N1CCN(c2nc(OC[C@@H]3CCCN3C)nc3c2CCN(c2ccccc2C(C)C)C3)CC1 [Example 158, 1-[4-[7-(2-isopropylphenyl)-2-[[(2S)-1-methylpyrrolidin-2-yl]methoxy]-6,8-dihydro-5H-pyrido[3,4-d]pyrimidin-4-yl]piperazin-1-yl]prop-2-en-1-one] | C (“C”>50% POC) |  | 
